Legend:
Type in all cases: cell-based
Conditions in all cases: 48 h
[1] = system: human mammary gland/duct cancer cell line BT-474; experiment: In vitro antitumor/anticancer testing (CCK-8), BT-474
Method: (§1) Each of Tea Product 1 and Conventional Tea Product obtained in section A of this example was used to prepare test tea samples according to the method described below. A proper amount of the respective tea product was added into sterile water to prepare a stock solution with a concentration of 100 mg/mL, followed by using a membrane filter with a pore size of 0.22 μm to conduct vacuum filtration and sterilization. The resulting stock solution was diluted with a respective complete medium shown in Table 3 below to form test tea samples with different concentrations. In other words, the thus obtained test tea samples to be used for treating a respective cancer/tumor cell line shown in Table 3 were prepared using the same complete medium as that for the respective cancer/tumor cell line. […] Specifically, each of the aforesaid commercially available agents was subjected to the method described below to prepare comparative test samples. A proper amount of a respective commercially available agent was dissolved in phosphate-buffered saline (PBS) to prepare a stock solution with a concentration of 5 mg/mL, followed by using a membrane filter with a pore size of 0.22 μm to conduct vacuum filtration and sterilization. The resulting stock solution was diluted with a respective complete medium shown in Table 3 below to form comparative test samples with different concentrations. To be specific, the comparative test samples prepared from the respective commercially available agent have the concentrations shown in Table 2 below. The thus obtained comparative test samples to be used for treating a respective cancer/tumor cell line shown in Table 3 were prepared using the same complete medium as that for the respective cancer/tumor cell line. […] The cultivation of each cancer/tumor cell line is described as follows. […] Afterwards, a cell suspension having a cell density of 1.0×10^4 cells/mL was prepared. […] As experimental groups, the tumor/cancer cells of each cell line were treated with the test tea samples prepared from one or more of the tea products and the comparative test samples prepared from one or more of the commercially available agents as obtained in section B of this example (for more detailed information about the tea product(s) and the commercially available product (s) used to treat each cell line, please see Table 4 below). To be specific, 6 to 10 test tea samples prepared from the same tea product and having different concentrations, as well as 6 to 10 comparative test samples prepared from the same commercially available agent and having different concentrations, were utilized to treat the tumor/cancer cells of each cell line. For each experimental group, 6 repetitions of tumor/cancer treatment were performed. For the control group, 100 μL of PBS was added to a well containing the medium and the cancer/tumor cells of the respective cell line. For the blank group, 100 μL of PBS was added to a well containing a complete medium the same as that used for cultivation of the cancer/tumor cells of the respective cell line. After the treatment described above, cultivation was conducted in an incubator (37° C., 100% relative humidity, 5% CO2) for 48 hours. Subsequently, the liquid containing the medium and the sample in the well was removed, and a respective complete medium (shown in Table 3 above) containing 10% CCK-8 (Cell Counting Kit-8)(Dojindo Molecular Technologies, Inc., Cat. No. CK04-13) was added. Cultivation was performed in an incubator (37° C.) for 2 to 4 hours, followed by gently shaking.

[2] = system: human ovarian cancer cell line SK-OV-3; experiment: In vitro antitumor/anticancer testing (CCK-8), SK-OV-3
Method: as §1

[3] = system: human glioblastoma cell line U-87MG; experiment: In vitro antitumor/anticancer testing (CCK-8), U-87MG
Method: as §1

IC50 ([1]; BT-474): IC50 (μg/mL) = 74.75 | IC50 ([2]; SK-OV-3): IC50 (μg/mL) = 24.05 | IC50 ([3]; U-87MG): IC50 (μg/mL) = 76.85
SMILES: O=C(O[C@@H]1Cc2c(O)cc(O)cc2O[C@@H]1c1cc(O)c(O)c(O)c1)c1cc(O)c(O)c(O)c1 [EGCG monomer, epigallocatechin gallate]
Percent growth inhibition ([1]; 2.5 μg/mL): 6.51% | Percent growth inhibition ([1]; 5 μg/mL): 2.62% | Percent growth inhibition ([1]; 10 μg/mL): −2.75% | Percent growth inhibition ([1]; 20 μg/mL): −6.45% | Percent growth inhibition ([1]; 40 μg/mL): −20.61% | Percent growth inhibition ([1]; 80 μg/mL): 57.40% | Percent growth inhibition ([1]; 160 μg/mL): 96.45% | Percent growth inhibition ([1]; 320 μg/mL): 97.46% | Percent growth inhibition ([1]; 640 μg/mL): 97.03% | Percent growth inhibition ([2]; 0.3125 μg/mL): 2.20% | Percent growth inhibition ([2]; 0.625 μg/mL): 3.98% | Percent growth inhibition ([2]; 1.25 μg/mL): 3.64% | Percent growth inhibition ([2]; 2.5 μg/mL): 5.54% | Percent growth inhibition ([2]; 5 μg/mL): 6.15% | Percent growth inhibition ([2]; 10 μg/mL): 4.47% | Percent growth inhibition ([2]; 20 μg/mL): 36.88% | Percent growth inhibition ([2]; 40 μg/mL): 81.73% | Percent growth inhibition ([2]; 80 μg/mL): 99.42% | Percent growth inhibition ([3]; 2.5 μg/mL): 2.29% | Percent growth inhibition ([3]; 5 μg/mL): 2.94% | Percent growth inhibition ([3]; 10 μg/mL): 5.82% | Percent growth inhibition ([3]; 20 μg/mL): 15.72% | Percent growth inhibition ([3]; 40 μg/mL): 15.15% | Percent growth inhibition ([3]; 80 μg/mL): 2.45% | Percent growth inhibition ([3]; 160 μg/mL): 82.81% | Percent growth inhibition ([3]; 320 μg/mL): 98.43% | Percent growth inhibition ([3]; 640 μg/mL): 98.03%

Source: patent US20180071354A1, “SELECTIVE BREEDING METHOD OF ANTITUMOR/ANTICANCER CAMELLIA SINENSIS STRAIN, AND TEA PRODUCT OF SUCH STRAIN” (FUJIAN AGRICULTURE AND FORESTRY UNIVERSITY, priority 2015, published 2018)
